Results published in US6056942A, “5-HT1A ligands” (John Wyeth & Brother, Ltd., priority 1993, dated 2000).
Like-named read-outs stand apart in the source and are kept apart here.

Tests used:
[1] = target: T1, 5-HT1A binding site (Rattus norvegicus, UniProt P19327)
T1 sequence (P19327 1-422): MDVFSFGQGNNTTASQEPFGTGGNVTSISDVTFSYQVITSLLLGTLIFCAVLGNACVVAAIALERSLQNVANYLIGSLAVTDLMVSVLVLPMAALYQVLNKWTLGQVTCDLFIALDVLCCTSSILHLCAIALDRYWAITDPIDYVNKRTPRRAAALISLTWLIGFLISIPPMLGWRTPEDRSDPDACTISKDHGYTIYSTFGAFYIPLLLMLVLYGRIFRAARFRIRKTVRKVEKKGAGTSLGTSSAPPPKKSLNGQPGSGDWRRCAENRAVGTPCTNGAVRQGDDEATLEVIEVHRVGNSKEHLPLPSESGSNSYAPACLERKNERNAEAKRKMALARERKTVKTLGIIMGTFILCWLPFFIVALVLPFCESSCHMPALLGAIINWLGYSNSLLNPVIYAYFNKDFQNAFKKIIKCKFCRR

[2] = target: T1, 5-HT1A binding site; experiment: biochemical
[3] = target: T2, 5-HT1B (Rattus norvegicus, UniProt P28564); experiment: Procedure (B): affinity for 5-HT1B sites; conditions: 10^-6 M; read-out: % inhibition of binding at 5-HT1B
T2 construct: from tissue
T2 sequence (P28564 whole entry): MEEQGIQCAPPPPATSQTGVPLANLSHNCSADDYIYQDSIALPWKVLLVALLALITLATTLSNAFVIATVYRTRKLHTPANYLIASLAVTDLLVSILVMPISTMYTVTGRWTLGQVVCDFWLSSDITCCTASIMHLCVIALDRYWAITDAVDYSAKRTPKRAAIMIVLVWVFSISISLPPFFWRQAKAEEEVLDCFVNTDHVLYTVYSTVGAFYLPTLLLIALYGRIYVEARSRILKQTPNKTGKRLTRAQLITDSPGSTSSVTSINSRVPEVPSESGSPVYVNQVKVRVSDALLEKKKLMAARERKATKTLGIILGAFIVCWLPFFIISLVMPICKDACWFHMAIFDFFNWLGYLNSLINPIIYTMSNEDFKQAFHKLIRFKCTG
Method: (§1) In addition to showing selectivity over the D2, α1 and 5-HT2A sites it is also preferable that the compound is 25 fold selective (preferably 50 fold selective) over one or more of the 5-HT1B, 5-HT2C, 5-HT1D, 5-HT3, α2, β and D1 sites. The affinity for these sites is determined by the following procedures.
5-HT1B : B. J. Alexander et al., Br. J. Pharmac., 1986, 87, P 22.

[4] = target: T3, D1 (Rattus norvegicus, UniProt P18901); experiment: Procedure (B): affinity for D1 sites; conditions: 10^-6 M; read-out: % inhibition of binding at D1
T3 construct: from tissue
T3 sequence (P18901 whole entry): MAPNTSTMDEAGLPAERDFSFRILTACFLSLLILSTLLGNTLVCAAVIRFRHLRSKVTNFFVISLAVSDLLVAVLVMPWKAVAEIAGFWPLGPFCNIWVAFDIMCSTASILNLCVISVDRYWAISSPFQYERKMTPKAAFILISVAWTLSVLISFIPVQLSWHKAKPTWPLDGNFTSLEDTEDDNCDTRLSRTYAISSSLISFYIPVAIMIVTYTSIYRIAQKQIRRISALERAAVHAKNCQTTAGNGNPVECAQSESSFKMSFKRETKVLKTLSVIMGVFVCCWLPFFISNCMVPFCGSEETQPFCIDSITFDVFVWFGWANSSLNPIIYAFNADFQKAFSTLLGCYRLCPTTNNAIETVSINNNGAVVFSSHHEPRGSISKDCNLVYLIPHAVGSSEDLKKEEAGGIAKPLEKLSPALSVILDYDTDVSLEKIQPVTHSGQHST
Method: The affinity for these sites is determined by the following procedures. D1 : V Billard et al. Life Sciences. 1984, 35, 1885-1893.

[5] = target: T4, 5-HT1A receptor (Rattus norvegicus, UniProt P19327); experiment: Procedure (A): displacement of [^3 H]-8-OH-DPAT from the 5-HT1A receptor in rat hippocampal membranes; type: binding; conditions: [^3 H]-8-OH-DPAT displacement, read-out: IC50 value according to procedure (A)
T4 construct: 5-HT1A receptor in rat hippocampal membranes; from tissue; host or cells: rat hippocampal membranes
T4 sequence (P19327 1-422): T1 sequence (P19327 1-422)

[6] = target: T5, 5-HT2A (Rattus norvegicus, UniProt P14842); experiment: Procedure (B): affinity for 5-HT2A sites; type: binding; conditions: for inhibition at 1 µM: 10^-6 M, read-out: % inhibition of binding at 5-HT2A
T5 construct: from tissue
T5 sequence (P14842 whole entry): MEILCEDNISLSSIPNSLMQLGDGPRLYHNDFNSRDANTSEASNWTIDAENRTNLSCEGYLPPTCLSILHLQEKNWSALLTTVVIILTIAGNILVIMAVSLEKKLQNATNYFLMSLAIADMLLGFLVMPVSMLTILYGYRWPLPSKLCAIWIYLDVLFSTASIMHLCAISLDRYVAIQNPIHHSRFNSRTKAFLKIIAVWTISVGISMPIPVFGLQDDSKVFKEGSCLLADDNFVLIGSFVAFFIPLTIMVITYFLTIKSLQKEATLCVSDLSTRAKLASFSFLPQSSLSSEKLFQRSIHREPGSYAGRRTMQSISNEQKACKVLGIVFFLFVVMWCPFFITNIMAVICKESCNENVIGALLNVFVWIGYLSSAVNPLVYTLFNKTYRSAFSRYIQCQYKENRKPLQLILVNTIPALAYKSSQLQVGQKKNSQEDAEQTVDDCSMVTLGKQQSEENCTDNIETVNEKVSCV
Method: The affinity of the compound for 5-HT2A sites is determined by the procedure of R. A. Lyon et al. Mol. Pharmacol., 1987, 31, 194-199. (The 5-HT2A site was previously known as the 5-HT2 site).
(§2) Preferably the compound should be 50 fold selective.

[7] = target: T6, α2 (Rattus norvegicus, UniProt P22909); experiment: Procedure (B): affinity for α2 sites; conditions: 10^-6 M; read-out: % inhibition of binding at α2
T6 construct: from tissue
T6 sequence (P22909 1-465): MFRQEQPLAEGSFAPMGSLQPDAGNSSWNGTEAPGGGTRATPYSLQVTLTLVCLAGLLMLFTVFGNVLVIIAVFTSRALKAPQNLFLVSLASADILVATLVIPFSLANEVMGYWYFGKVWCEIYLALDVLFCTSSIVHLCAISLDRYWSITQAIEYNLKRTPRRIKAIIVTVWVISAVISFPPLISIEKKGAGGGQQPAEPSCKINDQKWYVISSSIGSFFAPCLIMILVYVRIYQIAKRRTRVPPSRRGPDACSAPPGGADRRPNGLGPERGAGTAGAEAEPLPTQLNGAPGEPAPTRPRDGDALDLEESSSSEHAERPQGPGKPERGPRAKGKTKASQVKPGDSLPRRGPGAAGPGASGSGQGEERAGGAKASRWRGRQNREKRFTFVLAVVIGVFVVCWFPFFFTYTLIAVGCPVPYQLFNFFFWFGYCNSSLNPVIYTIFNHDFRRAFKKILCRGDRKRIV
Method: The affinity for these sites is determined by the following procedures. α2 : D. J. Loftus et al. Life Sciences, 1984, 34, 61-69.

[8] = target: D2 (Homo sapiens, UniProt P14416); experiment: Procedure (B): affinity for D2 receptor sites; type: binding; conditions: for inhibition at 1 µM: 10^-6 M, read-out: % inhibition of binding at D2
Chain of D2 (P14416 whole entry): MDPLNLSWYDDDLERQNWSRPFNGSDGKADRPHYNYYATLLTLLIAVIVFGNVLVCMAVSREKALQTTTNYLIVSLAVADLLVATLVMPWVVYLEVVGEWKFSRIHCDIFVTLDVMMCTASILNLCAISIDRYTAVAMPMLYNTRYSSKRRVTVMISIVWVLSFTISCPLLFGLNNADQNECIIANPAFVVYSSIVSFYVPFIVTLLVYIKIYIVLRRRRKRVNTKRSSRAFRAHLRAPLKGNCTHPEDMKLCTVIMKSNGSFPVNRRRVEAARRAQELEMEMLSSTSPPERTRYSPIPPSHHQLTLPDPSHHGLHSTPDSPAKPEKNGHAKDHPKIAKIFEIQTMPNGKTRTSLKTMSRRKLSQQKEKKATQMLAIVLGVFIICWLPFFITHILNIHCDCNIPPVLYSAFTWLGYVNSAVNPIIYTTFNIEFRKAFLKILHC
Method: The affinity of the compounds for D2 receptor sites is determined by the procedure of P. Seeman et al. J. Neurochem. 1984, 43, 221-235.

[9] = target: T7, presynaptic 5-HT1A receptors (Rattus norvegicus, UniProt P19327); experiment: Procedure (C)(a): electrophysiological monitoring of firing rate of serotonin neurones; type: in vivo; conditions: iv, read-out: ID50 (neuronal firing rate)
T7 construct: 5-HT release in the hippocampus using in vivo microdialysis; from tissue; host or cells: brain of the living animal
T7 sequence (P19327 1-422): T1 sequence (P19327 1-422)
Method: (§3) The activation of presynaptic 5-HT1A receptors results in the inhibition of serotonin neurones which can be quantified in two ways:
(a) Electrophysiologically monitoring the activity of the neurones to measure their firing rate by the method of H. J. Haigler and G. K. Aghajanian, J. Pharmacol. Exp. Therap., 1974, 188, 688. An intravenous ID50 dose is determined. The agonist.

[10] = tested on: β; experiment: Procedure (B): affinity for β sites; type: binding; conditions: 10^-6 M
Method: The affinity for these sites is determined by the following procedures. β: L. T. Williams and R. J. Lefkowitz (1987) Receptor binding studies in adrenergic pharmacology, Raven Press, New York.

[11] = tested on: 5-HT2C; experiment: Procedure (B): affinity for 5-HT2C (previously 5-HT1C) sites; type: binding; conditions: 10^-6 M
Method: as §1
5-HT2C : B. J. Alexander et al., Br. J. Pharmac., 1986, 87, P 22. (The 5-HT2C site was previously known as the 5-HT1C site).

[12] = tested on: 5-HT1D; experiment: Procedure (B): affinity for 5-HT1D sites; type: binding
Method: The affinity for these sites is determined by the following procedures. […] C. Waeber et al., Naunyn-Schmniedebergs Arch. Pharmacol. 1988, 337, 595-601.

[13] = target: T7, presynaptic 5-HT1A receptors; experiment: Procedure (C)(b): 5-HT release in the hippocampus using in vivo microdialysis; conditions: 1 mg/kg s.c.
Source text: as §3
Routledge, J. Gurling, I. K. Wright and C.

[14] = tested on: α1; experiment: Procedure (B): affinity for α1 sites; type: binding
Method: The affinity of the compound for al sites is determined by the procedure of A. L. Morrow, et al. Mol. Pharmacol. 1986, 29, 321.
as §2

[15] = concentration not clearly stated ("as were")
[16] = concentration of 10 MM (so in the source)

CN(C)CCCN1c2ccccc2CCc2ccccc21 [imipramine]
displacement of hippocampal [^3 H]WAY-100635 binding [1, 15]: ineffective

CNC[C@H](O)c1cccc(O)c1 [L-phenylephrine]
displacement of hippocampal [^3 H]WAY-100635 binding [1, 16]: ineffective

COc1ccccc1N1CCN(CCCCN2C(=O)c3ccccc3C2=O)CC1 [NAN 190]
IC50 [2]: 10 to 100 nM

COc1ccccc1N1CCN(CC(C(=O)NC(C)(C)C)c2ccccc2)CC1 (racemic) [racemate, N-tert-butyl-3-[4-(2-methoxyphenyl)piperazinyl]-2-phenylpropanamide]
inhibition at 1 µM [3]: 27%
inhibition at 1 µM [4]: 20%
IC50 [5]: 34 nM
inhibition at 1 µM [6]: 37%
inhibition at 1 µM [7]: 10%
inhibition at 1 µM [8]: 14%

CC(C)NCC(O)c1ccc(O)c(O)c1 (centres unmarked) [isoprenaline]
displacement of hippocampal [^3 H]WAY-100635 binding [1, 16]: ineffective

O=C1CN=C(c2ccccc2Cl)c2cc([N+](=O)[O-])ccc2N1 [clonazepam]
displacement of hippocampal [^3 H]WAY-100635 binding [1, 15]: ineffective

CCCN(CCC)C1CCc2cccc(O)c2C1 (centres unmarked) [Compound 8-OH-DPAT]
ED50 [9]: 1.9 µg/kg

NC[C@H](O)c1ccc(O)c(O)c1 [noradrenaline]
displacement of hippocampal [^3 H]WAY-100635 binding [1, 16]: ineffective

NCCc1ccc(O)c(O)c1 [dopamine]
displacement of hippocampal [^3 H]WAY-100635 binding [1, 16]: ineffective

COc1ccccc1N1CCN(CCN(C(=O)C2CCCCC2)c2ccccn2)CC1 [Compound (a), N-(2-(1-(4-(2-methoxyphenyl)piperazinyl))ethyl)-N-(2-pyridinyl)cyclohexanecarboxamide]
% inhibition of binding at β [10]: < 50%
inhibition at 1 µM [3]: < 50%
inhibition at 1 µM [4]: < 50%
inhibition at 1 µM [6]: < 50%
% inhibition of binding at 5-HT2C (5-HT1C) [11]: < 50%
inhibition at 1 µM [7]: < 50%
inhibition at 1 µM [8]: < 50%
% inhibition of binding at 5-HT1D ([12]; 10^-6 M): < 50%

COC(=O)c1cc2c(N3CCN(CCCCN4C(=O)c5ccccc5S4(=O)=O)CC3)cccc2[nH]1 [SDZ-216525]
IC50 [2]: 5 nM

COCCCC/C(=N\OCCN)c1ccc(C(F)(F)F)cc1 [fluvoxarnine]
activity against [^3 H]WAY-100635 binding ([1]; micromolar concentrations): inactive

COc1ccccc1N1CCN(CC[C@@H](C(=O)N2CCCCCC2)c2ccccc2)CC1 [(c)]
effect of pretreatment on 8-OH-DPAT-induced decrease in 5-HT release [13]: completely blocked the 8-OH-DPAT-induced decrease in 5-HT release
effect on 5-HT release / extracellular levels of 5-HT in the hippocampus [13]: no significant effect on extracellular levels of 5-HT in the hippocampus
% inhibition of binding at β [10]: < 50%
inhibition at 1 µM [3]: < 50%
inhibition at 1 µM [4]: < 50%
IC50 [14]: 53 nM
IC50 [5]: 0.3 nM
IC50 ([6]; procedure (B)): 106 nM
% inhibition of binding at 5-HT2C (5-HT1C) [11]: < 50%
inhibition at 1 µM [7]: 53%
IC50 ([8]; procedure (B)): 277 nM
IC50 ([12]; procedure (B)): 2240 nM

NCCc1c[nH]c2ccc(C(N)=O)cc12 [Compound 5-CT]
IC50 [2]: 10 to 100 nM

COc1ccccc1N1CCN(CC(C(=O)NC(C)(C)C)c2ccccc2)CC1 (single isomer, unassigned; (+)) [(+)-enantiomer, N-tert-butyl-3-[4-(2-methoxyphenyl)piperazinyl]-2-phenylpropanamide]
inhibition at 1 µM [3]: 22%
inhibition at 1 µM [4]: 22%
IC50 [5]: 15.5 nM
inhibition at 1 µM [6]: 61%
inhibition at 1 µM [7]: 11%
inhibition at 1 µM [8]: 20%

CSc1ccc2c(c1)C(N1CCN(C)CC1)Cc1ccccc1S2 (centres unmarked) [methiothepin]
IC50 [2]: 10 to 100 nM
